Experimental findings from patent US20240109900A1, “AZABICYCLIC SHP2 INHIBITORS” (IRBM S.P.A., priority 2021, published 2024) are described below.

The target in assay [1] is SHP-2 enzyme (Met1-Leu525) (Homo sapiens (Human), UniProt Q06124). Put plainly: SHP2 inhibition enzymatic assay. To be noted: 0.5 nM SHP-2 activated by 500 nM IRS1 peptide, 75 μM DiFMUP substrate; read-out: SHP2wt-IC50. It counts as biochemical. Summed up:
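Compounds were preincubated 30 min with 0.5 nM SHP-2 (Met1-Leu525) plus 500 nM IRS1 activating peptide (pH 7.2 HEPES, 5 mM DTT), then 75 μM DiFMUP substrate reacted 30 min at room temperature. After bpV quench, DiFMUP fluorescence gave % inhibition; four-parameter logistic fit yielded IC50.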

The test system of assay [2] is ERK phosphorylation in KYSE-520 cells. The assay is described as follows: Phospho-ERK cellular assay. It counts as cell-based. Particulars: Homo sapiens, KYSE-520, 2 h, KYSE-520 cells, 2 h at 37° C., phospho-ERK1/2 (Thr202/Tyr204) TR-FRET; read-out: PERK IC50. A digest of the protocol: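 TR-FRET read-out of ERK1/2 Thr202/Tyr204 phosphorylation was taken after overnight antibody incubation at room temperature. Before that, KYSE-520 cells were treated 2 h at 37 °C with compound dilutions and lysed 30 min. Percent inhibition relative to vehicle and cell-free wells was fitted four-parametrically to give IC50.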
Background: Time-resolved FRET reads energy transfer from a long-lived donor to a nearby acceptor.

A value given as a limit tells only on which side of the number the result lay.

Chain of SHP-2 enzyme (Met1-Leu525) (Q06124 1-525): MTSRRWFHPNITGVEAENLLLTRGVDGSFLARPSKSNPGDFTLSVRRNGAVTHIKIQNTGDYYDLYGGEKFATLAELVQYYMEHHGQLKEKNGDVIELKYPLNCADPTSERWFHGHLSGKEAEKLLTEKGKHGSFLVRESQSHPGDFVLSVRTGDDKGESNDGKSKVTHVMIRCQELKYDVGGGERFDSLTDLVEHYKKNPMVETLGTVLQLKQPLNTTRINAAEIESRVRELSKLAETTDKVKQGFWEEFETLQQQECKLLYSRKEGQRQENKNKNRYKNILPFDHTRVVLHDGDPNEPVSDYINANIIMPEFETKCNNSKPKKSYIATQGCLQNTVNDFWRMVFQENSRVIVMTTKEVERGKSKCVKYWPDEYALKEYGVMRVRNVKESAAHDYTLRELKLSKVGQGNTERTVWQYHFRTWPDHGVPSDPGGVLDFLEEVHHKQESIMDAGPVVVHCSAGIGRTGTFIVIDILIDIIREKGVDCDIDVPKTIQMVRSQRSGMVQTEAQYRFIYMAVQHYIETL

As usually defined, the IC50 is the concentration that gives 50% inhibition. In the case of `Cc1c(-c2n[nH]c3nc(N4CC[C@@H]5[C@H](C4)[C@@]5(CN)c4ccccc4C(F)(F)F)cnc23)ccc2nn(C)cc12` [Example 182, ((1S,6R,7R)-3-(3-(2,4-dimethyl-2H-indazol-5-yl)-1H-pyrazolo[3,4-b]pyrazin-6-yl)-7-(2-(trifluoromethyl)phenyl)-3-azabicyclo[4.1.0]heptan-7-yl)methanamine], the IC50 is less than 0.5 µM in assay [1] and less than 1 µM in assay [2].

As to `Cc1ccc2c(-c3n[nH]c4nc(N5CC[C@@H]6[C@H](C5)[C@@]6(CN)c5ccccc5F)cnc34)ccc(F)c2n1` [Example 226, ((1S,6R,7R)-3-(3-(8-fluoro-2-methylquinolin-5-yl)-1H-pyrazolo[3,4-b]pyrazin-6-yl)-7-(2-fluorophenyl)-3-azabicyclo[4.1.0]heptan-7-yl)methanamine], the IC50 in assay [1] is less than 0.5 µM; in assay [2], less than 1 µM.

Take `CC(C)n1cc2c(Cl)c(-c3n[nH]c4nc(N5CC[C@@H]6[C@H](C5)[C@@]6(CN)c5ccccc5F)cnc34)ccc2n1` [Example 280, ((1S,6R,7R)-3-(3-(4-chloro-2-isopropyl-2H-indazol-5-yl)-1H-pyrazolo[3,4-b]pyrazin-6-yl)-7-(2-fluorophenyl)-3-azabicyclo[4.1.0]heptan-7-yl)methanamine]: the 50% inhibitory concentration (IC50) is less than 0.5 µM in assay [1] and less than 1 µM in assay [2].

Regarding `NCC1(c2ccc(F)cc2)C2CCN(c3cnc4c(-c5cccc(Cl)c5Cl)n[nH]c4n3)CC21` (stereo not drawn) [Example 10, (3-(3-(2,3-dichlorophenyl)-1H-pyrazolo[3,4-b]pyrazin-6-yl)-7-(4-fluorophenyl)-3-azabicyclo[4.1.0]heptan-7-yl)methanamine], the IC50 in assay [1] is less than 0.5 µM; in assay [2] it was less than 1 µM.

Consider `COc1cc(-c2n[nH]c3nc(N4CC[C@@H]5[C@H](C4)[C@@]5(CN)c4ccccc4F)cnc23)cc2[nH]c(=O)[nH]c12` [Example 292, 6-(6-((1S,6R,7R)-7-(aminomethyl)-7-(2-fluorophenyl)-3-azabicyclo[4.1.0]heptan-3-yl)-1H-pyrazolo[3,4-b]pyrazin-3-yl)-4-methoxy-1,3-dihydro-2H-benzo[d]imidazol-2-one], for which the IC50 was less than 0.5 µM in assay [1] and more than 5 µM in assay [2].

Turning to `NCC1(c2ccc(F)cc2)C2CCN(c3cnc4c(-c5ccc6nccnc6c5)n[nH]c4n3)CC21` (stereo not drawn) [Example 11, (7-(4-fluorophenyl)-3-(3-(quinoxalin-6-yl)-1H-pyrazolo[3,4-b]pyrazin-6-yl)-3-azabicyclo[4.1.0]heptan-7-yl)methanamine], the figures for the 50% inhibitory concentration (IC50) in assay [1] and in assay [2] were less than 0.5 µM and more than 5 µM, respectively.

`Cn1cc2c(Cl)c(-c3n[nH]c4nc(N5CCC6C(C5)C6(CN)c5ccccc5)cnc34)ccc2n1` (stereo not drawn) [Example 81, (3-(3-(4-chloro-2-methyl-2H-indazol-5-yl)-1H-pyrazolo[3,4-b]pyrazin-6-yl)-7-phenyl-3-azabicyclo[4.1.0]heptan-7-yl)methanamine]: the half-inhibitory concentration (IC50) was less than 0.5 µM in assay [1] and less than 1 µM in assay [2].

As for `NCC1(c2ccccc2F)C2CCN(c3cnc4c(-c5cccc6ncccc56)n[nH]c4n3)CC21` (stereo not drawn) [Example 5, (7-(2-fluorophenyl)-3-(3-(quinolin-5-yl)-1H-pyrazolo[3,4-b]pyrazin-6-yl)-3-azabicyclo[4.1.0]heptan-7-yl)methanamine], the IC50 in assay [1] is less than 0.5 µM; in assay [2], less than 1 µM.

Take `Cn1cc2c(C3CC3)c(-c3n[nH]c4nc(N5CC[C@@H]6[C@H](C5)[C@@]6(CN)c5ccccc5F)cnc34)ccc2n1` [Example 194, ((1S,6R,7R)-3-(3-(4-cyclopropyl-2-methyl-2H-indazol-5-yl)-1H-pyrazolo[3,4-b]pyrazin-6-yl)-7-(2-fluorophenyl)-3-azabicyclo[4.1.0]heptan-7-yl)methanamine]: the IC50 in assay [1] is less than 0.5 µM; in assay [2] it was less than 1 µM.

Regarding `Cc1c(-c2n[nH]c3nc(N4CC[C@@H]5[C@H](C4)[C@@]5(CN)c4ccccc4F)cnc23)ccc2nn(C)cc12` [Example 145, ((1S,6R,7R)-3-(3-(2,4-dimethyl-2H-indazol-5-yl)-1H-pyrazolo[3,4-b]pyrazin-6-yl)-7-(2-fluorophenyl)-3-azabicyclo[4.1.0]heptan-7-yl)methanamine], the half-inhibitory concentration (IC50) in assay [1] was less than 0.5 µM; in assay [2], less than 1 µM.

For the compound `Cn1cnc2ccc(-c3n[nH]c4nc(N5CC[C@@H]6[C@H](C5)[C@@]6(CN)c5cc(F)ccc5F)cnc34)c(Cl)c21` [Example 396, ((1S,6R,7R)-3-(3-(7-chloro-1-methyl-1H-benzo[d]imidazol-6-yl)-1H-pyrazolo[3,4-b]pyrazin-6-yl)-7-(2,5-difluorophenyl)-3-azabicyclo[4.1.0]heptan-7-yl)methanamine], the IC50 was less than 0.5 µM in assay [1] and less than 1 µM in assay [2].

`CN1C(=O)COc2ccc(-c3n[nH]c4nc(N5CC[C@@H]6[C@H](C5)[C@@]6(CN)c5ccccc5F)cnc34)c(Cl)c21` [Example 228, 6-(6-((1S,6R,7R)-7-(aminomethyl)-7-(2-fluorophenyl)-3-azabicyclo[4.1.0]heptan-3-yl)-1H-pyrazolo[3,4-b]pyrazin-3-yl)-5-chloro-4-methyl-2H-benzo[b][1,4]oxazin-3(4H)-one]: the IC50 in assay [1] is less than 0.5 µM; in assay [2], less than 1 µM.

For the compound `NC[C@]1(c2ccccc2F)[C@@H]2CCN(c3cnc(Sc4cccc5ncccc45)cn3)C[C@@H]21` [Example 422, ((1S,6R,7R)-7-(2-fluorophenyl)-3-(5-(quinolin-5-ylthio)pyrazin-2-yl)-3-azabicyclo[4.1.0]heptan-7-yl)methanamine], the figures for the IC50 in assay [1] and in assay [2] were less than 0.5 µM and less than 1 µM, respectively.

Consider `Cn1c(=O)n(C)c2c(Cl)c(-c3n[nH]c4nc(N5CC[C@@H]6[C@H](C5)[C@@]6(CN)c5ccccc5F)cnc34)ccc21` [Example 317, 5-(6-((1S,6R,7R)-7-(aminomethyl)-7-(2-fluorophenyl)-3-azabicyclo[4.1.0]heptan-3-yl)-1H-pyrazolo[3,4-b]pyrazin-3-yl)-4-chloro-1,3-dimethyl-1,3-dihydro-2H-benzo[d]imidazol-2-one], for which the IC50 in assay [1] was less than 0.5 µM; in assay [2], less than 1 µM.

In the case of `NC[C@]1(c2ccccc2F)[C@@H]2CCN(c3cnc4c(-c5cc(C(=O)O)ccc5Cl)n[nH]c4n3)C[C@@H]21` [Example 277, 3-(6-((1S,6R,7R)-7-(aminomethyl)-7-(2-fluorophenyl)-3-azabicyclo[4.1.0]heptan-3-yl)-1H-pyrazolo[3,4-b]pyrazin-3-yl)-4-chlorobenzoic acid], the half-inhibitory concentration (IC50) in assay [1] is less than 0.5 µM; in assay [2] it was more than 5 µM.

As for `Cc1c(-c2n[nH]c3nc(N4CC[C@@H]5[C@H](C4)[C@@]5(CN)c4ccc(F)cc4F)cnc23)ccc2nn(C)cc12` [Example 199, ((1S,6R,7R)-7-(2,4-difluorophenyl)-3-(3-(2,4-dimethyl-2H-indazol-5-yl)-1H-pyrazolo[3,4-b]pyrazin-6-yl)-3-azabicyclo[4.1.0]heptan-7-yl)methanamine], the IC50 in assay [1] was less than 0.5 µM; in assay [2], less than 1 µM.

For the compound `COc1ccc(-c2n[nH]c3nc(N4CC[C@@H]5[C@H](C4)[C@@]5(CN)c4ccc(F)cc4F)cnc23)c2cccnc12` [Example 200, ((1S,6R,7R)-7-(2,4-difluorophenyl)-3-(3-(8-methoxyquinolin-5-yl)-1H-pyrazolo[3,4-b]pyrazin-6-yl)-3-azabicyclo[4.1.0]heptan-7-yl)methanamine], the IC50 in assay [1] is less than 0.5 µM; in assay [2] it was less than 1 µM.

In the case of `NC[C@]1(c2ccccc2F)[C@@H]2CCN(c3cnc4c(-c5ccc(-n6cccc6)cc5Cl)n[nH]c4n3)C[C@@H]21` [Example 454, ((1S,6R,7R)-3-(3-(2-chloro-4-(1H-pyrrol-1-yl)phenyl)-1H-pyrazolo[3,4-b]pyrazin-6-yl)-7-(2-fluorophenyl)-3-azabicyclo[4.1.0]heptan-7-yl)methanamine], the values for the concentration for half-maximal inhibition (IC50) in assay [1] and in assay [2] were less than 0.5 µM and less than 1 µM, respectively.

`Cn1cc2c(Cl)c(-c3n[nH]c4nc(N5CC[C@@H]6[C@H](C5)[C@@]6(CN)c5cc(F)ccc5F)cnc34)ccc2n1` [Example 369, ((1S,6R,7R)-3-(3-(4-chloro-2-methyl-2H-indazol-5-yl)-1H-pyrazolo[3,4-b]pyrazin-6-yl)-7-(2,5-difluorophenyl)-3-azabicyclo[4.1.0]heptan-7-yl)methanamine]: the figures for the IC50 in assay [1] and in assay [2] were less than 0.5 µM and less than 1 µM, respectively.

In the case of `Cc1cccc([C@@]2(CN)[C@@H]3CN(c4cnc5c(-c6ccc7nn(C)cc7c6Cl)n[nH]c5n4)C[C@@H]32)n1` [Example 496, ((1R,5S,6r)-3-(3-(4-chloro-2-methyl-2H-indazol-5-yl)-1H-pyrazolo[3,4-b]pyrazin-6-yl)-6-(6-methylpyridin-2-yl)-3-azabicyclo[3.1.0]hexan-6-yl)methanamine], the values for the IC50 in assay [1] and in assay [2] were less than 0.5 µM and less than 1 µM, respectively.

As to `NC[C@]1(c2ccccc2F)[C@@H]2CCN(c3cnc4c(-c5ccnc(-n6cccc6)c5Cl)n[nH]c4n3)C[C@@H]21` [Example 522, ((1S,6R,7R)-3-(3-(3-chloro-2-(1H-pyrrol-1-yl)pyridin-4-yl)-1H-pyrazolo[3,4-b]pyrazin-6-yl)-7-(2-fluorophenyl)-3-azabicyclo[4.1.0]heptan-7-yl)methanamine], the results for the half-inhibitory concentration (IC50) in assay [1] and in assay [2] were less than 0.5 µM and less than 1 µM, respectively.
